Experimental data from the METLIN SMRT retention time set (Domingo-Almenara et al. 2019).

Test: gradient 5% acetonitrile 3 min, to 50% in 2 min, to 85% in 15 min, held 3 min, 100 µL/min
Conditions: column: Zorbax Extend-C18 2.1 x 50 mm; eluents: water / acetonitrile, 0.1% formic acid
Summary of the method: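 A Zorbax Extend-C18 column (2.1 × 50 mm, 1.8 μm) run at 100 μL/min with water and acetonitrile, both containing 0.1% formic acid, separated mixtures of ~100 pure standards. The HPLC was coupled to a quadrupole time-of-flight mass spectrometer operated in positive and negative ionization mode, with dead and dwell volumes of 40 μL and 900 μL. Each retention time was taken from a computationally picked adduct peak that was then manually inspected.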

| SMILES | RP-LC retention time |
| --- | --- |
| O=C(N[C@H]1C[C@@H]2C[C@H]1CN2C(=O)Nc1ccc2c(c1)CCC2)c1ccccc1 | 829 s |
| O=C(C1CCCCN1S(=O)(=O)c1ccc(F)cc1)N1CCc2ccccc21 (centres undefined) | 1090 s |
| Cn1nnc2cc(CNC(=O)c3ccc(F)cc3)ccc21 | 686 s |
| O=C(CCc1c[nH]c2ccccc12)N1CCOc2ccc(N3CCOCC3)cc2C1 | 770 s |
| CCOc1ccc(-n2ccn3cc(-c4ccc(C)c(C)c4)nc3c2=O)cc1 | 938 s |
| Cn1nc2n(c1=O)CCN(C(=O)Cc1ccsc1)CC2 | 611 s |
| COc1ccc(O)c2c(=O)c3c(OC)cc4c(c3oc12)[C@@H]1C=CO[C@@H]1O4 | 979 s |
| CN(C)C(=O)Oc1ccc2c(c1)O/C(=C\C=C\c1ccccc1)C2=O | 1060 s |
| O=C(NC1CCCCC1)c1ccc(CN2CCN(Cc3ccc(F)cc3)C(=O)C2=O)cc1 | 783 s |
| COc1ccc(C(=O)N2CCN(c3cc(-c4cccs4)[nH]n3)CC2)cc1OC | 741 s |
| CCC(C)C(NC(=O)c1sccc1C)C(=O)Nc1nc2ccccc2[nH]1 (centres undefined) | 746 s |
| COc1ccc(OC)c(NC(=O)C2CCN(c3cc(N4CCSCC4)ncn3)CC2)c1 | 694 s |
| CCOc1cc(C)c(C)cc1S(=O)(=O)n1cc(C)nc1CC | 712 s |
| Cc1cc2c(cc1S(=O)(=O)N1CCCC1C(=O)Nc1ccc3c(c1)OCO3)OCC(=O)N2 (centres undefined) | 720 s |
| O=C([C@@H]1C[C@H](Oc2ccccc2)CN1C(=O)c1cccs1)N1CCCC1 | 767 s |
| CCn1cc(C(=O)NCc2ccccc2C)c(S(=O)(=O)N2CCSCC2)n1 | 1120 s |
| COCCn1cc2c3c(cccc31)CN(C(=O)Nc1ccc(OC)cc1OC)CC2 | 883 s |
| COc1cccc(CCC(=O)N2CCN(C3=NC=CN4CC(C)N=C34)CC2)c1 (centres undefined) | 591 s |
| Cc1cc(-c2nnc(-c3ccc(F)cc3)o2)c(C)n1CC(=O)N(C)Cc1ccccc1 | 1000 s |
| O=C(NC1CC1)[C@@H]1OCCN(C2CC2)[C@H]1c1ccccc1 | 572 s |
| Cc1ccc2oc(N3CCN(C(=O)c4ccc(-c5noc(C(C)C)n5)cc4)CC3)nc2n1 | 685 s |
| CCCN1C(=O)CCc2c(C)ncnc21 | 611 s |
| O=S(=O)(c1ccc(-c2nnc(C3CC3)o2)o1)N1CCCCC1 | 853 s |

| SMILES | RP-LC retention time |
| --- | --- |
| CCOC(=O)C1=C(CN2CCCCC2)NC(=O)NC1c1ccco1 (centres undefined) | 579 s |
| Cc1cnc(Nc2ccc(N3CCN(C)CC3)cc2)nc1Nc1cccc(S(=O)(=O)NC(C)(C)C)c1 | 608 s |
| Cc1cc(NS(=O)(=O)c2ccc(-c3c(C)noc3C)cc2)ccc1Br | 1030 s |
| Cc1ccc(NC(=O)Cn2c(-c3cnccn3)nc(C)c(C)c2=O)cc1C | 774 s |
| Cc1ccc(-c2noc(Cn3c(=O)n(-c4ccc(Cl)cc4)c(=O)c4sccc43)n2)cc1C | 1150 s |
| COc1ccc(S(=O)(=O)N2CCCC(c3nnnn3C)C2)cc1 (centres undefined) | 744 s |
| Cc1ccc(Cl)cc1NC(=O)CSc1nnc2c3cc(-c4ccc(F)cc4)nn3ccn12 | 618 s |
| Cc1ccc(Cn2c(N3CCCC(C(=O)Nc4cc(C)cc(C)c4)C3)nc3ccsc3c2=O)cc1 (centres undefined) | 1160 s |
| CC1=C(C(=O)N(CC(=O)NCc2ccc(C)cc2)c2ccc(Cl)cc2)SCCO1 | 1010 s |
| Cc1nc(-c2ccc3c(c2)n(CC(=O)NC2CCCc4ccccc42)c(=O)n3C(C)C)no1 (centres undefined) | 912 s |
| Cc1cc(N2CCN(C)CC2)nc2ccc(NC(=S)NC3CCCC(C)C3C)cc12 (centres undefined) | 639 s |
| CCCN1CCO[C@@H]2c3cc(O)ccc3OC[C@H]21 | 645 s |
| Cc1ccc(C)c(N2CCN(c3ccnc(SCC(=O)NC(C)CCc4ccccc4)n3)CC2)c1 (centres undefined) | 1020 s |
| CCc1nc2c(c(=O)n1CC(=O)Nc1ccc(C(C)C)cc1)CN(Cc1ccccc1)CC2 | 753 s |
| Cn1c(C(=O)NCc2ccccc2)cc2sccc21 | 892 s |
| O=C(Nc1ccc2c(c1)C(=O)Nc1ccccc1O2)c1ccc2nsnc2c1 | 773 s |
| CC(C)n1nc(CNC(=O)CNC(=O)c2ccccc2)c2ccccc21 | 740 s |
| COc1ccc(NC(=O)CCS(=O)(=O)Cc2ccccc2)c2ccccc12 | 688 s |
| CCN1C(=O)CCc2cc(NC(=O)CCc3ccccc3OC)ccc21 | 787 s |
| CCOCC(=O)N1CCCn2cc(-c3ccccc3)nc21 | 621 s |
| COCCCNC(=O)N1CCCC(C)(C(=O)NCc2ccccc2C)C1 (centres undefined) | 720 s |
| Cc1ccc(-c2noc(Cn3ccn(-c4c(C)cccc4C)c(=O)c3=O)n2)cc1 | 925 s |
| O=S(=O)(c1ccc(-c2cnc(C3CCC3)o2)s1)N1CCN(c2ccccn2)CC1 | 767 s |

| SMILES | RP-LC retention time |
| --- | --- |
| COc1ccc(NC(=O)C2CCCN(c3ncnc4c3nc3n4CCCCC3)C2)cc1 (centres undefined) | 753 s |
| Cc1ccc(CSc2nccc3c2ccn3CC(=O)NCCN2CCN(C)CC2)cc1 | 589 s |
| CCN(CC)CCCNC(=O)c1nnc(-c2ccc(S(=O)(=O)N3CCOCC3)cc2)o1 | 600 s |
| CCOc1ccc(N2CC(c3nnc(NC(=O)c4ccc(C(C)(C)C)cc4)o3)CC2=O)cc1 (centres undefined) | 935 s |
| CC(C)c1ccc(Nc2c(-c3cc(Br)ccc3O)nc3ncccn23)cc1 | 1190 s |
| CC(C)n1c(N2CCCN(C(=O)c3ccccn3)CC2)cc(=O)n(C(C)C)c1=O | 712 s |
| Cc1cc(Nc2ccc(NC(=O)c3sc(C)nc3C)cc2)nc(N2CCCC2)n1 | 583 s |
| CC(C)C(=O)NC(C)c1nc2ccccc2n1CC(N)=O (centres undefined) | 503 s |
| Cc1ccc(C)c(NC(=O)C2CCCN(c3nc4c(s3)c(C)nn4-c3cccc(F)c3)C2)c1 (centres undefined) | 1280 s |
| CC(C)N1CCN(C(=O)C2CCc3sc(C(=O)N4CCCCCC4)cc3C2)CC1 (centres undefined) | 619 s |
| CCOc1ccccc1CNC(=O)C1CCCN(c2nnc(C)c3c(C)n(-c4ccccc4)nc23)C1 (centres undefined) | 774 s |
| O=C(c1c2c(nn1C1CCS(=O)(=O)C1)CCC2)N1CCC(Cc2ccccc2)CC1 (centres undefined) | 849 s |
| CCOc1ccccc1CNC(=O)C1CCN(C(=O)c2sccc2-n2cccc2)CC1 | 882 s |
| CCCN1C(=O)c2cc(C(=O)NCc3ccccc3)nn2CC1(C)C(=O)NC1CCCC1 (centres undefined) | 605 s |
| O=C(NCC1CCOCC1)Nc1ccccc1Cl | 741 s |
| CCS(=O)(=O)c1ccc2c(c1)N(Cc1nc(-c3ccc4c(c3)OCO4)no1)C(=O)CO2 | 859 s |
| Cc1cc(NC(=O)C2CCN(C(=O)c3cnn(-c4ccccc4)n3)CC2)no1 | 847 s |
| CC(=O)Nc1cc(C(=O)NCC(C)C)c2ccc(C)nc2c1 | 574 s |
| COc1cccc(-c2nc(-c3ccc4oc(C)nc4c3)no2)c1 | 1110 s |
| CCOC(=O)c1c(NC(=O)CN2CCN(CC)CC2)sc(C)c1C | 596 s |
| O=C(c1ccc2c(c1)OCO2)N1CCC2(CC1)N=C(c1ccccc1)NO2 | 858 s |
| CCc1nnc([C@@H]2CC(F)(F)CN2C(=O)CCn2nc(C)cc2C)o1 | 666 s |
| Cc1cccc(NC(=O)NC2CCN(c3cc(C)cc(C)c3)C2=O)c1 (centres undefined) | 945 s |

| SMILES | RP-LC retention time |
| --- | --- |
| O=C(Cn1c(=O)c2cc(-c3cccs3)nn2c2ncccc21)NCCc1ccccc1 | 829 s |
| O=C1CCc2cc(S(=O)(=O)N3CCN(c4ccc(F)cc4)CC3)cc3c2N1CCC3 | 966 s |
| Cc1c(F)cccc1NC(=O)N1C[C@@H](F)C[C@H]1C(=O)N1CCc2ccccc2C1 | 799 s |
| Cc1ccc(C)c(NC(=O)C(=O)NCC(c2ccc3c(c2)OCO3)N2CCOCC2)c1 (centres undefined) | 693 s |
| O=C(O)c1nnn(-c2ccc3c(c2)CCC3)c1-c1ccccn1 | 750 s |
| CCn1cnc(S(=O)(=O)N2CCCC(C(=O)Nc3ccc(Cl)cc3C)C2)c1 (centres undefined) | 795 s |
| Cc1cccc(-c2nn3c(N(C)C)cc(C)nc3c2C)c1 | 716 s |
| CCn1cc(CC(=O)NCC2CC2)c2cccnc21 | 624 s |
| CC(Oc1cccc(Cl)c1)C(=O)N1CCn2cnnc2C1 (centres undefined) | 622 s |
| CN(C)c1ccc(C(=O)NCCCCCCC(=O)NO)cc1 | 631 s |
| COC(=O)c1ccc2c(=O)n(-c3cccc(OC)c3)c(N3CCOCC3)nc2c1 | 887 s |
| Cc1ccc(Nc2ncccc2S(N)(=O)=O)c(F)c1 | 840 s |
| CCCC(NC(=O)c1cccc(F)c1)C(=O)Nc1nc2ccccc2[nH]1 (centres undefined) | 693 s |
| Cn1nc(C(=O)N2CCCN(c3cc(-c4ccc(Br)cc4)[nH]n3)CC2)c2ccccc21 | 807 s |
| CN1c2ccccc2C(=O)N2CCc3c([nH]c4ccccc34)C21 (centres undefined) | 890 s |
| COc1cccc(-c2nc(-c3cn(Cc4cccc(F)c4)nn3)no2)c1 | 995 s |
| Cc1oc(-c2ccccc2)nc1Cc1noc(COc2ccc(F)cc2)n1 | 1100 s |
| O=C(Cn1cnc2nc3c(cc2c1=O)CCCC3)NCCc1ccccc1 | 728 s |
| Cc1c(-c2noc(-c3ccc4cc[nH]c4c3)n2)nnn1-c1ccc(F)cc1 | 996 s |
| O=C(c1ccnc(N2CCNC(c3ccccc3)C2)c1)N1CCN(c2ncccn2)CC1 (centres undefined) | 608 s |
